Source: PMC10046095 (2023)
Values belong to the compound of their own block, whether it stands above or below them.

Experiments:
[1] = system: a-TC8 (amino, on DynaEpoxy) (DNA, aptamer) CGGTGGTG; assay: bead capture, HPLC; conditions: room temperature, 1 h; capture significantly higher than nonsense aptamer
[2] = system: a-TC40 (amino, on DynaEpoxy) (DNA, aptamer) GTTTGTGTATTACAGTTATGTTACCCTCATTTTTCTGAAC; assay: bead capture, HPLC; conditions: room temperature, 1 h; capture significantly higher than nonsense aptamer
[3] = system: a-TCmu (biotinylated, on DynaSA) (RNA, aptamer) GGGCCUAAAACAUACCAGAUCGCCACCCGCGCUUUAAUCUGGAGAGGUGAAGAAUACGACCACCUAGGCUC; assay: bead capture, HPLC; conditions: room temperature, 1 h; eluted with 2 M NaCl and 80 °C
[4] = system: a-TC40 (DNA, aptamer) GTTTGTGTATTACAGTTATGTTACCCTCATTTTTCTGAAC; assay: equilibrium filtration, HPLC; conditions: 100 mM NaCl, 5 mM KCl, 2 mM MgCl2, 1 mM CaCl2; 20 mM Tris/HCl pH 7.6 (binding buffer listed for TC); filter leakage 0.53
[5] = system: a-TC76 (DNA, aptamer) CGTACGGAATTCGCTAGCCCCCCGGCAGGCCACGGCTTGGGTTGGTCCCACTGCGCGTGGATCCGAGCTCCACGTG; assay: equilibrium filtration, HPLC; conditions: 100 mM NaCl, 5 mM KCl, 2 mM MgCl2, 1 mM CaCl2; 20 mM Tris/HCl pH 7.6 (binding buffer listed for TC)
[6] = system: a-TCmu (RNA, aptamer) GGGCCUAAAACAUACCAGAUCGCCACCCGCGCUUUAAUCUGGAGAGGUGAAGAAUACGACCACCUAGGCUC; assay: equilibrium filtration, HPLC; conditions: Na+ 100 mM; Mg2+ 10 mM; K+ (20 mM potassium phosphate buffer); 20 mM potassium phosphate pH 7.5 (presumed)
[7] = system: a-TCmu (RNA, aptamer) GGGCCUAAAACAUACCAGAUCGCCACCCGCGCUUUAAUCUGGAGAGGUGAAGAAUACGACCACCUAGGCUC; assay: fluorescence titration (intrinsic tetracycline fluorescence); conditions: 100 mM NaCl, 10 mM MgCl2; 20 mM potassium phosphate pH 7.5, 25 °C; fluorescence yield up about 12 times
[8] = system: a-SDM (DNA, aptamer) GAGGGCAACGAGTGTTTATAGA; assay: equilibrium filtration (3 kD filter), HPLC; conditions: 50 mM NaCl, 5 mM KCl, 5 mM MgCl2; 20 mM Tris/HCl pH 8 (BBSDM)
[9] = system: a-SMZ-b (on DynaSA) (DNA, aptamer) TTAGCTTATGCGTTGGCCGGGATAAGGATCCAGCCGTTGTAGATTTGCGTTCTAACTCTC; assay: bead capture, HPLC; conditions: room temperature, 1 h; around 2% captured, no elution, data not shown
[10] = system: a-SMZ (DNA, aptamer) TTAGCTTATGCGTTGGCCGGGATAAGGATCCAGCCGTTGTAGATTTGCGTTCTAACTCTC; assay: equilibrium filtration, HPLC; conditions: 100 mM NaCl, 5 mM KCl, 2 mM MgCl2, 1 mM CaCl2; 20 mM Tris/HCl pH 7.6 (binding buffer listed for SMZ); highest aptamer 2.5 µM

binding [1]: yes
binding [3]: yes
k [5]: 14 µM
k [6]: 64 nM
k [7]: ~ 60 nM
Structure (SMILES): CN(C)[C@@H]1C(=O)C(C(N)=O)=C(O)[C@@]2(O)C(=O)C3=C(O)c4c(O)cccc4[C@@](C)(O)[C@H]3C[C@@H]12
binding [2]: yes
k [4]: 100 nM

binding [8]: no
Structure (SMILES): COc1cc(NS(=O)(=O)c2ccc(N)cc2)nc(OC)n1

binding [9]: weak
k [10]: > 2.5 µM
Structure (SMILES): Cc1cc(C)nc(NS(=O)(=O)c2ccc(N)cc2)n1
